Laboratory results taken from PubChem BioAssay (NCI).
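Cultured in 96-well plates, cells were exposed to test compound for 48 hours across five concentrations. TGI marks complete inhibition of growth.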

Key:
Assay in all cases: growth of human tumour cells (NCI), 48 h
TK-10 renal = test system: TK-10 renal
UACC-62 melanoma = test system: UACC-62 melanoma
KM12 colon = test system: KM12 colon
K-562 leukemia = test system: K-562 leukemia
RPMI-8226 leukemia = test system: RPMI-8226 leukemia
NCI-H226 lung = test system: NCI-H226 lung
M14 melanoma = test system: M14 melanoma
BT-549 breast = test system: BT-549 breast
HS 578T breast = test system: HS 578T breast
OVCAR-5 ovarian = test system: OVCAR-5 ovarian
SF-539 CNS = test system: SF-539 CNS
COLO 205 colon = test system: COLO 205 colon
HOP-62 NSCLC = test system: HOP-62 NSCLC
HL-60(TB) leukemia = test system: HL-60(TB) leukemia
SK-MEL-2 melanoma = test system: SK-MEL-2 melanoma
NCI-H460 lung = test system: NCI-H460 lung
OVCAR-8 ovarian = test system: OVCAR-8 ovarian
SW-620 colon = test system: SW-620 colon
SNB-19 CNS = test system: SNB-19 CNS
SNB-75 CNS = test system: SNB-75 CNS
CAKI-1 renal = test system: CAKI-1 renal
PC-3 prostate = test system: PC-3 prostate
SN12C renal = test system: SN12C renal
T-47D breast = test system: T-47D breast
MCF7 breast = test system: MCF7 breast
EKVX NSCLC = test system: EKVX NSCLC
LOX IMVI melanoma = test system: LOX IMVI melanoma
UACC-257 melanoma = test system: UACC-257 melanoma
HCC-2998 colon = test system: HCC-2998 colon
MALME-3M melanoma = test system: MALME-3M melanoma
NCI/ADR-RES ovarian = test system: NCI/ADR-RES ovarian
A549 NSCLC = test system: A549 NSCLC
MOLT-4 leukemia = test system: MOLT-4 leukemia
IGROV1 ovarian = test system: IGROV1 ovarian
HCT-116 colon = test system: HCT-116 colon
SF-268 CNS = test system: SF-268 CNS
ACHN renal = test system: ACHN renal
OVCAR-3 ovarian = test system: OVCAR-3 ovarian
RXF 393 renal = test system: RXF 393 renal
HCT-15 colon = test system: HCT-15 colon
DU-145 prostate = test system: DU-145 prostate
HOP-92 NSCLC = test system: HOP-92 NSCLC
UO-31 renal = test system: UO-31 renal
SR leukemia = test system: SR leukemia
NCI-H23 lung = test system: NCI-H23 lung
SF-295 CNS = test system: SF-295 CNS
SK-MEL-5 melanoma = test system: SK-MEL-5 melanoma
MDA-MB-435 = test system: MDA-MB-435
MDA-MB-231 breast = test system: MDA-MB-231 breast
SK-OV-3 ovarian = test system: SK-OV-3 ovarian
U251 CNS = test system: U251 CNS
SK-MEL-28 melanoma = test system: SK-MEL-28 melanoma
CCRF-CEM leukemia = test system: CCRF-CEM leukemia
A498 renal = test system: A498 renal
786-0 renal = test system: 786-0 renal
HT29 colon = test system: HT29 colon
OVCAR-4 ovarian = test system: OVCAR-4 ovarian
NCI-H522 lung = test system: NCI-H522 lung
MDA-N = test system: MDA-N

## COc1cc(C2c3cc4c(cc3CC3COC(=O)N32)OCO4)cc(OC)c1OC (stereo not drawn)
TK-10 renal
  TGI: > 100 µM
UACC-62 melanoma
  TGI: > 100 µM
KM12 colon
  TGI: > 61.7 µM
K-562 leukemia
  TGI: > 100 µM
RPMI-8226 leukemia
  TGI: > 100 µM
NCI-H226 lung
  TGI: > 92.5 µM
M14 melanoma
  TGI: > 100 µM
BT-549 breast
  TGI: > 100 µM
HS 578T breast
  TGI: > 57.2 µM
OVCAR-5 ovarian
  TGI: > 100 µM
SF-539 CNS
  TGI: 5.8 µM
COLO 205 colon
  TGI: 4.89 µM
HOP-62 NSCLC
  TGI: > 100 µM
HL-60(TB) leukemia
  TGI: 8.6 µM
SK-MEL-2 melanoma
  TGI: > 100 µM
NCI-H460 lung
  TGI: > 100 µM
OVCAR-8 ovarian
  TGI: > 100 µM
SW-620 colon
  TGI: > 100 µM
SNB-19 CNS
  TGI: > 100 µM
SNB-75 CNS
  TGI: > 100 µM
CAKI-1 renal
  TGI: > 100 µM
PC-3 prostate
  TGI: > 100 µM
SN12C renal
  TGI: > 48.1 µM
T-47D breast
  TGI: > 100 µM
MCF7 breast
  TGI: > 100 µM
EKVX NSCLC
  TGI: > 100 µM
LOX IMVI melanoma
  TGI: > 100 µM
UACC-257 melanoma
  TGI: > 100 µM
HCC-2998 colon
  TGI: 8.7 µM
MALME-3M melanoma
  TGI: > 100 µM
NCI/ADR-RES ovarian
  TGI: 4.26 µM
A549 NSCLC
  TGI: > 100 µM
MOLT-4 leukemia
  TGI: > 61.8 µM
IGROV1 ovarian
  TGI: > 100 µM
HCT-116 colon
  TGI: > 100 µM
SF-268 CNS
  TGI: > 100 µM
ACHN renal
  TGI: > 100 µM
OVCAR-3 ovarian
  TGI: 5.05 µM
RXF 393 renal
  TGI: > 100 µM
HCT-15 colon
  TGI: > 27.9 µM
DU-145 prostate
  TGI: > 100 µM
HOP-92 NSCLC
  TGI: > 94.9 µM
UO-31 renal
  TGI: > 100 µM
SR leukemia
  TGI: > 28.7 µM
NCI-H23 lung
  TGI: > 31.6 µM
SF-295 CNS
  TGI: 5.35 µM
SK-MEL-5 melanoma
  TGI: 35.6 µM
MDA-MB-435
  TGI: 1.44 µM
MDA-MB-231 breast
  TGI: 30 µM
SK-OV-3 ovarian
  TGI: > 100 µM
U251 CNS
  TGI: > 31.6 µM
SK-MEL-28 melanoma
  TGI: > 100 µM
CCRF-CEM leukemia
  TGI: > 36.4 µM
A498 renal
  TGI: > 100 µM
786-0 renal
  TGI: > 100 µM
HT29 colon
  TGI: 5.14 µM
OVCAR-4 ovarian
  TGI: > 100 µM
NCI-H522 lung
  TGI: 5.66 µM
MDA-N
  TGI: 1.28 µM

## COc1ccc(NC(=S)N=Nc2c(O)[nH]c3ccccc23)cc1
TK-10 renal
  TGI: > 79 µM
UACC-62 melanoma
  TGI: > 100 µM
KM12 colon
  TGI: > 100 µM
K-562 leukemia
  TGI: > 100 µM
RPMI-8226 leukemia
  TGI: > 100 µM
NCI-H226 lung
  TGI: > 100 µM
M14 melanoma
  TGI: > 100 µM
BT-549 breast
  TGI: 33.2 µM
HS 578T breast
  TGI: > 100 µM
OVCAR-5 ovarian
  TGI: > 100 µM
SF-539 CNS
  TGI: > 70.4 µM
COLO 205 colon
  TGI: > 100 µM
HOP-62 NSCLC
  TGI: > 45.5 µM
HL-60(TB) leukemia
  TGI: > 100 µM
SK-MEL-2 melanoma
  TGI: > 76.4 µM
NCI-H460 lung
  TGI: > 100 µM
OVCAR-8 ovarian
  TGI: > 76.2 µM
SW-620 colon
  TGI: > 100 µM
SNB-19 CNS
  TGI: > 100 µM
SNB-75 CNS
  TGI: > 78.8 µM
CAKI-1 renal
  TGI: 98.3 µM
PC-3 prostate
  TGI: > 70 µM
SN12C renal
  TGI: > 89 µM
T-47D breast
  TGI: > 100 µM
MCF7 breast
  TGI: > 100 µM
EKVX NSCLC
  TGI: > 100 µM
LOX IMVI melanoma
  TGI: > 100 µM
UACC-257 melanoma
  TGI: > 100 µM
HCC-2998 colon
  TGI: > 100 µM
MALME-3M melanoma
  TGI: > 42.8 µM
NCI/ADR-RES ovarian
  TGI: > 42.6 µM
A549 NSCLC
  TGI: > 100 µM
MOLT-4 leukemia
  TGI: > 100 µM
IGROV1 ovarian
  TGI: > 100 µM
HCT-116 colon
  TGI: > 100 µM
SF-268 CNS
  TGI: > 100 µM
ACHN renal
  TGI: > 95.4 µM
OVCAR-3 ovarian
  TGI: > 58.6 µM
RXF 393 renal
  TGI: > 61 µM
HCT-15 colon
  TGI: > 100 µM
DU-145 prostate
  TGI: > 100 µM
HOP-92 NSCLC
  TGI: > 78.7 µM
UO-31 renal
  TGI: > 100 µM
SR leukemia
  TGI: > 100 µM
NCI-H23 lung
  TGI: > 100 µM
SF-295 CNS
  TGI: > 58.5 µM
SK-MEL-5 melanoma
  TGI: > 100 µM
MDA-MB-435
  TGI: > 100 µM
MDA-MB-231 breast
  TGI: > 90.8 µM
SK-OV-3 ovarian
  TGI: > 68.8 µM
U251 CNS
  TGI: > 59.9 µM
SK-MEL-28 melanoma
  TGI: > 100 µM
CCRF-CEM leukemia
  TGI: > 100 µM
A498 renal
  TGI: > 83.3 µM
786-0 renal
  TGI: > 55.9 µM
HT29 colon
  TGI: > 100 µM
OVCAR-4 ovarian
  TGI: > 95.2 µM
NCI-H522 lung
  TGI: > 100 µM
MDA-N
  TGI: > 100 µM
